Data reported in EP1961762A1, “Inhibitors of protein phosphatase 1/GADD34, preparation and uses thereof” (Institut Gustave Roussy, priority 2007, dated 2008).
Entries after “also recorded” stand apart in the source; their conditions may differ.

Assays:
MCA205, B16F10, J558 = assay: CRT exposure on murine tumour cell lines; assay type: cell-based
CT26 tumours [1] = assay: Intratumoural treatment of established CT26 tumours, immunocompetent mice
Experimental: (§2) All animals were maintained in specific pathogen-free conditions and all experiments followed the FELASA guidelines. […] Tumours were evaluated weekly, using a caliper. In a series of experiments, BALB/c (wild type or nu/nu) carrying palpable CT26 tumours (implanted 14 days before for wild type or 7 days before for nu/nu mice by injection of 10^6 tumour cells) received a single intratumoural injection of 100 µM PBS containing the same concentration of anti-cancer agents and PP1/GADD34 inhibitors as those used in vitro, as well as rCRT (15 µg).

HeLa, A549, HCT116 = assay: CRT exposure on human tumour cell lines; assay type: cell-based
[2] = system: CRT, KDEL receptor and ERp57; assay: Double immunofluorescence staining of CRT, KDEL receptor and ERp57; assay type: cell-based; conditions: HeLa cells, 1 µM, 2h
CT26 cells = assay: Phagocytosis of tumour cells by dendritic cells; assay type: cell-based, BALB/c mice; conditions: within a few hours after treatment
Experimental: BM cells were flushed from the tibias and femurs of BALB/c mice with culture medium composed of RPMI 1640 medium (Invitrogen Life Technologies) supplemented with 10% heat-inactivated FBS (Invitrogen), sodium pyruvate, 50 µM 2-ME (Sigma), 10 mM HEPES (pH 7.4), and penicillin/streptomycin (Invitrogen). After one centrifugation, BM cells were resuspended in Tris-ammonium chloride for 2 min to lyse RBC. After one more centrifugation, BM cells (1 x 10^6 cells/ml) were cultured in medium supplemented with 100 ng/ml recombinant mouse FLT3 ligand (R&D systems) in 6-well plates (Costar Corning). After 7 days, the non-adherent and loosely adherent cells were harvested with Versene, washed and transferred in 12-well plates (1.5 x 10^6 cells/plate) for cocultures with tumour cells.
In 12-well plates, 25 x 10^6 adherent CT26 cells were labelled with Celltracker Green (Calbiochem) and then incubated with drugs. In some experiments viable CT26 were coated with 2µg/10^6 cells of chicken anti-CRT antibody (ABR affinity bioreagents) or an isotype control for 30 min prior to washing and feeding to dendritic cells Cs. Alternatively CT26 cells were coated with 2µg/10^6 cells of rCRT on ice for 30 min and washed twice prior to addition to dendritic cells. […] Phagocytosis was assessed by FACS analysis of double positive cells. […]

CT26 tumours [3] = assay: Intratumoural treatment of established CT26 tumours, nu/nu mice
Experimental: as §2

CRT [4] = assay: Fluorescence detection of cell surface CRT on CT26 cells; assay type: cell-based, murine
Experimental: CT26 cells were cultured at 37°C under 5% CO2 in RPMI 1640 medium supplemented with 10% FCS, penicillin, streptomycin, 1 mM pyruvate and 10 mM HEPES in the presence of doxorubicin (DX; 24 h, 25 µM), mitoxantrone (Mitox; 24h, 1 µM, Sigma), idarubicin (24h, 1 µM, Aventis, France), mitomycin C (30 µM, 48 h; Sanofi-Synthelabo, France), and/or zVAD-fmk (50 µM, 24 h; Bachem), tunicamycin (24h, 65 µM), thapsigargin (24h, 30µM), brefeldin A (24h, 50 µM, Sigma), etoposide (48h, 25µM, Tava classics), MG132 (48h, 10 µM), ALLN (48h, […]), betulinic acid (24h, 10 µM), Hoechst 33343 (24h, 0,2µM), camptothecine (24h, 15 µM), lactacystin (48h, 60 µM), BAY 11-8072 (24h, 30µM), staurosporine (24h, 1.5 µM), bafilomycin A1 (48h, 300 nM), arsenic trioxide (24h, 30µM), C2-ceramide (C2-C; 24h, 60 µM,), calyculin A (48h, 30nM), or tautomycin (48h, nM, Sigma) and/or salubrinal (48h, µM, Calbiochem).
(§1) CT26 cells (on a glass slide or in 12-well plates) were first washed with FACS buffer (1× PBS, 5% fetus bovine serum, and 0.1% sodium azide) and then incubated with rabbit anti-mouse CRT antibody (1:100, Stressgen) in FACS buffer at 4 °C for 30 min. Cells reacted with anti-rabbit IgG (H+L) Alexa fluor 488-conjugates (1:500) in FACS buffer at 4 °C for 30 min. After washing three times with FACS buffer, surface CRT was detected by cytofluorometric analysis on a FACS Vantage. In some experiments, cells were fixed with 4% paraformaldehyde, counterstained with Hoechst (2µM; Sigma), followed by fluorescence microscopic assessment with a Leica IRE2 microscope equipped with a DC300F camera.

CRT [5] = assay: Cell surface CRT on enucleated CT26 cells (cytoplasts); assay type: cell-based, murine
Experimental: as §1
Trypsinized CT26 cells were enucleated as described in the publication of Andreau, K. et al. Contagious apoptosis facilitated by the HIV-1 envelope. Fusion-induced cell-to-cell transmission of a lethal signal. J. Cell Sci. 117, 5643-53 (2004). Briefly, cells were treated in 2 ml of complete RPMI medium containing cytochalasin B (10µg/ml; Sigma) and DNase I (80U/ml; Sigma). […] Then the cell surface CRT was detected (see materials and methods) and the viability was determined by with propidium iodine staining (2µg/ml, Sigma) for 5 min followed by cytofluorometric analysis. […] Phagocytosis was assessed by FACS analysis of double positive cells.

CT26 tumour cells = assay: Anti-tumour vaccination with dying treated CT26 tumour cells, challenge with live tumour cells; assay type: in vivo, BALB/c mice; conditions: for immunogenic apoptosis / immunogenic cell death (protection against tumour growth): dying CT26 cells treated with the agent injected into one flank, live tumour cells into the opposite flank 8 days later
ERp57 [6] = assay: Flow cytometric detection of surface ERp57; assay type: cell-based
[7] = system: human HCT116 colon cancer cell; assay: Calreticulin exposure, immunofluorescence staining and cytofluorometric analysis; assay type: cell-based; conditions: 2 hours
[8] = system: murine CT26 colon cancer cells; assay: as above; assay type: cell-based; conditions: 2 hours
Experimental: CT26 cells were cultured for 24 hours in the presence of the indicated agents for 24hrs, as described in Materials and Methods, and then were stained with Annexin V-FITC and the vital dye DAPI. • Fig. 1B: Identification of immunogenic cell death inducers. CT26 cells cultured as in Fig.1A were injected into the left flank, followed by injection of life tumour cells in the right flank 8 days later. The percentage of tumour free mice was determined 120 days later as in Fig.1C. • Fig. 1C: Incidence of tumours after inoculation of dying cells. Day 1 was considered the day of inoculation of dying tumour cells, 1 week before challenge with […]. • Fig. 1S. Dissociation of CRT exposure and phosphatidyl serine exposure. • Fig. 1SA, Fig. 1SB: Kinetics of CRT exposure. […] Representative pictograms are shown in Fig.1SA and quantitative data are reported in Fig.1SB. • Fig. 1SC, Fig. 1SD: Kinetics of PS exposure and cell death. […] Note that the nuclei of untreated cells were visualized with Hoechst 33342 (blue), while those of doxorubicin-treated cells emit a red fluorescence (Fig.2D). […] The surface exposure of CRT was determined by immunoflurorescence cytometry while gating on viable (propidium iodine-negative) cells (inserts) and was correlated with the immunogenicity of cell death (as determined in Fig. 1). […]

CRT and/or ERp57 = assay: Immunofluorescence staining of unfixed human tumour cell lines; assay type: cell-based; conditions: variety of human tumour cell lines
ERP57 [9] = assay: Biotinylated surface proteins, 2D electrophoresis and mass spectroscopy; conditions: short-term (4 h) treatment
CRT [10] = assay: as above; conditions: short-term (4 h) treatment

O=C1c2c(O)ccc(O)c2C(=O)c2c(NCCNCCO)ccc(NCCNCCO)c21 [mitoxantrone]
CRT exposure (MCA205, B16F10, J558): induced CRT exposure
therapeutic effect of single agent (CT26 tumours [1]; single intratumoural injection, 14-day-old tumours): permanent regression in some but not all cases
CRT exposure (HeLa, A549, HCT116): induced CRT exposure
surface appearance of CRT, KDEL receptor and ERp57 [2]: appear together on the surface
phagocytosis of treated tumour cells by DC (CT26 cells): acquired the property to be phagocytosed by DC quickly
therapeutic effect of single agent (CT26 tumours [3]; single intratumoural injection): no cure
CRT exposure triggered by PP1 or GADD34 depletion (CRT [4]; siRNA knock-down, then mitoxantrone 2 h): not further enhanced
time to CRT exposure in enucleated cells (cytoplasts) (CRT [5]): ≤ 1 h
immunogenic apoptosis / immunogenic cell death (protection against tumour growth) (CT26 tumour cells): elicited immunogenic cell death

CO[C@H]([C@H](O)CC(=O)[C@@H](C)[C@@H](O)CC[C@@H](C)[C@@H]1O[C@]2(CC[C@@H](C)[C@H](CC[C@H](C)C(C)=O)O2)CC[C@@H]1C)[C@H](OC(=O)C[C@@H](O)C1=C(C)C(=O)OC1=O)C(C)C [tautomycin]
therapeutic effect of single agent (CT26 tumours [1]; mouse, in vivo): no major therapeutic effect
tumour response (CT26 tumours [1]; mouse, in vivo): stable disease or complete tumour regression
therapeutic effect of single agent (CT26 tumours [3]; mouse, in vivo): no major therapeutic effect
CRT exposure (CRT [4]): efficiently induced; also recorded: greatly enhanced
surface exposure of ERp57 (ERp57 [6]): stimulates the surface exposure or ERp57
immunogenic cell death (CT26 tumour cells; mouse, in vivo): not sufficient to induce immunogenic cell death
immunogenic potential of cells succumbing to etoposide (CT26 tumour cells; mouse, in vivo): greatly enhanced

VKKKKIKREIKI-Ikaravafsekv [mutant control peptide]
exposure of calreticulin [7]: did not induce calreticulin exposure
exposure of calreticulin [8]: did not induce calreticulin exposure

COc1cccc2c1C(=O)c1c(O)c3c(c(O)c1C2=O)C[C@@](O)(C(=O)CO)C[C@@H]3O[C@H]1C[C@H](N)[C@H](O)[C@H](C)O1 [doxorubicin]
exposure of CRT and/or ERp57 on the cell surface (CRT and/or ERp57): Very similar results
phagocytosis of treated tumour cells by DC (CT26 cells): acquired the property to be phagocytosed by DC quickly
surface exposure of ERP57 (ERP57 [9]): specifically induced
immunogenic apoptosis / immunogenic cell death (protection against tumour growth) (CT26 tumour cells): elicited immunogenic cell death
induction of surface CRT (factor) (CRT [10]; doxorubicin alone): 6
induction of surface CRT (factor) (CRT [10]; doxorubicin combined with Z-VAD-fmk): 1.8
